“Also recorded” adds a separate entry of the source. Read-outs that look alike come from different tables or passages of the source.
Legend:
[1] = tested on: amines and tyrosine hydroxylase; conditions: cited from earlier work
PC12 cells = assay: cells; conditions: Rattus norvegicus, PC-12, 1 h, read-out: [^3 H]-Dopamine Uptake (PC12)
Experimental: The effects of various pharmacologic agents were tested to determine whether the properties of the protein encoded by the mpp^res cDNA corresponded with those expected for the chromaffin granule amine transport protein. […] The cells were pre-incubated in Krebs-Ringer buffer containing 1 μM pargyline and the dose of the drug indicated for 15 minutes. […] Values were determined from three separate wells and the mean was expressed as percent of control uptake±standard deviation.

[2] = tested on: vesicular amine transport protein; conditions: cited from earlier work
[3] = target: T1, chromaffin granule amine transport protein (Rattus norvegicus, UniProt Q01818); assay: cell-based; format: cell-based
T1 sequence (Q01818 1-521): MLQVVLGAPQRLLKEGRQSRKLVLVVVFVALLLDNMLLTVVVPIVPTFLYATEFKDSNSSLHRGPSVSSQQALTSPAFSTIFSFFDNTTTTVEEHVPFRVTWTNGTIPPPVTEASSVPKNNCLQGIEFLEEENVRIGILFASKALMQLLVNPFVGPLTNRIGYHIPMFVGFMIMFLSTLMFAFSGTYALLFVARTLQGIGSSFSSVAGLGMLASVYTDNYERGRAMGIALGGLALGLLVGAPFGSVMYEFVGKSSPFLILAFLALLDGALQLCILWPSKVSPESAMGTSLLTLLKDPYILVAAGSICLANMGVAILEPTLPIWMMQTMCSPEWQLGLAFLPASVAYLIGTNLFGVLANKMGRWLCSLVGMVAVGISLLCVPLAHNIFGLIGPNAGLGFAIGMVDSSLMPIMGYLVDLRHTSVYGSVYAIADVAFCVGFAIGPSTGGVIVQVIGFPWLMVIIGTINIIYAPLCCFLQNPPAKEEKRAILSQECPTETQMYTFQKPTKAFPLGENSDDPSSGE
Experimental: Uptake and cellular compartmentalization of loaded dopamine were performed by growing cells on poly-lysine-coated glass coverslips. […] The cells were then washed three times in 0.1M sodium phosphate, pH 7.4, and incubated at 4° C. in 2% glyoxylic acid/0.5 mg% MgCl2, pH 4.9-5.0 for three minutes as described by de la Torre, J. Neurosci. Meth. 3:1-5 (1980). Briefly, excess solution is wiped off the bottom and edges of the slide using absorbent paper, taking care not to touch the section. The coverslips were then drained thoroughly, dried in air at 45° C. heated to 80° C. for five minutes, inverted over mineral oil on glass slides and examined under fluorescence using the appropriate filters as described by Knigge et al., Brain Res. 120:393-405 (1977). Briefly, the preparations were infiltrated with warm immersion oil and examined in a Leitz MPV2 microspectrofluorometer equipped with Schoffel excitation and emission grating monochromators, photomultipliers, and ratio computing circuitry. Cells were scanned with either monochromatic light (370 nm) or narrow band excitation (S405, BG3) light for the purpose of identifying fluorescence within cells. Ploem illumination was used in combination with a X 63 or X 100 oil immersion objective.
Dopamine-loaded fluorescence was carried out as described in Example 1. […] Glyoxylic-acid-induced fluorescence was used to determine the intracellular distribution as described above in Example 1. The procedures were the same as described in Example 1 however a pure cDNA clone encoding the vesicle membrane transport protein, selected in the presence of MPP^+, obtained as described herein, was used rather than the primary transformant. […]
The effects of various pharmacologic agents were tested to determine whether the properties of the protein encoded by the mpp^res cDNA corresponded with those expected for the chromaffin granule amine transport protein. […] The cells were pre-incubated in Krebs-Ringer buffer containing 1 μM pargyline and the dose of the drug indicated for 15 minutes. 25 nM [^3 H]-dopamine was then added in the same buffer and after incubation at 37° C. for one hour, the cells were washed in cold Krebs-Ringer buffer, lysed and counted in Ecolite (ICN) as described by Greene and Rein, Brain Res. 129:247-263 (1978). Values were determined from three separate wells and the mean was expressed as percent of control uptake±standard deviation. […] The dose required to inhibit maximal uptake by 50%, Ki, was estimated from the fluorescence data using a range of concentrations for each agent.

## COC(=O)[C@H]1[C@H]2C[C@@H]3c4[nH]c5cc(OC)ccc5c4CCN3C[C@H]2C[C@@H](OC(=O)c2cc(OC)c(OC)c(OC)c2)[C@@H]1OC [reserpine]
[1]
  potentiation of amine depletion and reduction in tyrosine hydroxylase by MPP+: can potentiate the depletion of amines and reduction in tyrosine hydroxylase by MPP^+
PC12 cells
  activity at 1 µM: 23 ± 2%
[2]
  inhibition of vesicular amine transport: inhibits
[2]; listed as Reserpine
  inhibition of vesicular amine transport: inhibit this transport activity
[3]; 50 nM
  inhibition of vesicular dopamine uptake in the fluorescence assay: inhibit vesicular dopamine uptake completely
[3]; 1 μM
  perinuclear and particulate cytoplasmic dopamine staining of MPP+-resistant CHO cells: inhibited
[3]; agent 1 μM, untreated control ++++, 12 hour dopamine loading
  Dopamine Fluorescence (mpp^res CHO): 0
[3]; dose required to inhibit maximal uptake by 50%, estimated from fluorescence data, read-out: Ki (est)
  Ki: 25 nM
[3]; reserpine concentration not stated
  pattern of catecholamine accumulation in the MPP+-resistant transfectant: reversion to the wild-type pattern of catecholamine accumulation; also recorded: reversed
